pIC50, pKd, pKi: −log10 of the molar value. Activity calls are given as the source filed them. The calls are words filed in the database; no cut-off is given here.
Legend:
[1] = target: T1, Muscarinic acetylcholine receptor M1 (Homo sapiens, UniProt P11229); assay: Displacement of [3H]N-methylscopolamine from human muscarinic M1 receptor expressed in human HEK293T cell membranes by radioligand competition binding based analysis; parameters: species or system Cell membrane
T1 sequence (P11229 whole entry): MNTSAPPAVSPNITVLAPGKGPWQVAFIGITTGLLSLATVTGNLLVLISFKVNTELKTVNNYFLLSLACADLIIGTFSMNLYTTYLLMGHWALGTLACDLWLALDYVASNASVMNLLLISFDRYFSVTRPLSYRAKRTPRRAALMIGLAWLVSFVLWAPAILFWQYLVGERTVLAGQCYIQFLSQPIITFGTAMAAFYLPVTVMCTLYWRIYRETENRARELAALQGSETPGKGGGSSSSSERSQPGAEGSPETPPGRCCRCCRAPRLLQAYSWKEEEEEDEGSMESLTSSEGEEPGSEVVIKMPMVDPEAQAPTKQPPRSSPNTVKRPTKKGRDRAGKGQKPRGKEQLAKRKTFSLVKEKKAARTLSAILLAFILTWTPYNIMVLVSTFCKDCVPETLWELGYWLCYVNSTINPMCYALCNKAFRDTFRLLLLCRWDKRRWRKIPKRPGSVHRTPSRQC

[2] = target: T2, Muscarinic acetylcholine receptor M2 (Homo sapiens, UniProt P08172); assay: Displacement of [3H]N-methylscopolamine from human muscarinic M2 receptor expressed in human HEK293T cell membranes by radioligand competition binding based analysis; parameters: species or system Cell membrane
T2 sequence (P08172 whole entry): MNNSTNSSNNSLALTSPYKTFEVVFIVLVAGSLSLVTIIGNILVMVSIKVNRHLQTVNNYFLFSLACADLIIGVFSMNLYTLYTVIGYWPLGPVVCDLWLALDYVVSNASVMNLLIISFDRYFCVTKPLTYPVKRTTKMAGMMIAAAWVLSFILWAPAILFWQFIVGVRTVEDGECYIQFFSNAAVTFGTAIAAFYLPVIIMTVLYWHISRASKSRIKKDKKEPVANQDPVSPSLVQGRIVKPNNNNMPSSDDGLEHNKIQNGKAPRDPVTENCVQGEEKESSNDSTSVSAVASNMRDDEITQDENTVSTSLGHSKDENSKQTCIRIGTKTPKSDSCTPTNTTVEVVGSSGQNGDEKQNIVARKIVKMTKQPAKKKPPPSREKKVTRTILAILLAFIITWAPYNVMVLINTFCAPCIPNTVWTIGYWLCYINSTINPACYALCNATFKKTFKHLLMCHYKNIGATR

[3] = target: T3, Muscarinic acetylcholine receptor M3 (Homo sapiens, UniProt P20309); assay: Displacement of [3H]N-methylscopolamine from human muscarinic M3 receptor expressed in human HEK293T cell membranes by radioligand competition binding based analysis; parameters: species or system Cell membrane
Target sequence in this assay (P20309 whole entry): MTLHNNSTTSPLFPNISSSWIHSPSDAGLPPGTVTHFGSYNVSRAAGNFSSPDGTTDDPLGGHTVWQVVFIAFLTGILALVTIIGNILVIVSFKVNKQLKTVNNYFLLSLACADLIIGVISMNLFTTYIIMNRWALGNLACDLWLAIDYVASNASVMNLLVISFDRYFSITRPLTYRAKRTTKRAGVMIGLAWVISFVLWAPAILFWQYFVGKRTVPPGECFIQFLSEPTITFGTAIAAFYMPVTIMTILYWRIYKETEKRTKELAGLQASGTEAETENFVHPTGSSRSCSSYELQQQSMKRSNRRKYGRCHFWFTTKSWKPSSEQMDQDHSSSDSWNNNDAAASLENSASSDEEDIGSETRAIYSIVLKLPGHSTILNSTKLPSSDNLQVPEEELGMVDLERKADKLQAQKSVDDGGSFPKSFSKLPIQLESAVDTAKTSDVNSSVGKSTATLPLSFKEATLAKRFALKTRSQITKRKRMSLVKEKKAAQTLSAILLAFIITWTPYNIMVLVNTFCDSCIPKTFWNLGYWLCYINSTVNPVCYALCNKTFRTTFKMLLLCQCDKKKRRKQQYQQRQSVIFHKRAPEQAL

[4] = target: T4, Muscarinic acetylcholine receptor M4 (Homo sapiens, UniProt P08173); assay: Displacement of [3H]N-methylscopolamine from human muscarinic M4 receptor expressed in human HEK293T cell membranes by radioligand competition binding based analysis; parameters: species or system Cell membrane
T4 sequence (P08173 whole entry): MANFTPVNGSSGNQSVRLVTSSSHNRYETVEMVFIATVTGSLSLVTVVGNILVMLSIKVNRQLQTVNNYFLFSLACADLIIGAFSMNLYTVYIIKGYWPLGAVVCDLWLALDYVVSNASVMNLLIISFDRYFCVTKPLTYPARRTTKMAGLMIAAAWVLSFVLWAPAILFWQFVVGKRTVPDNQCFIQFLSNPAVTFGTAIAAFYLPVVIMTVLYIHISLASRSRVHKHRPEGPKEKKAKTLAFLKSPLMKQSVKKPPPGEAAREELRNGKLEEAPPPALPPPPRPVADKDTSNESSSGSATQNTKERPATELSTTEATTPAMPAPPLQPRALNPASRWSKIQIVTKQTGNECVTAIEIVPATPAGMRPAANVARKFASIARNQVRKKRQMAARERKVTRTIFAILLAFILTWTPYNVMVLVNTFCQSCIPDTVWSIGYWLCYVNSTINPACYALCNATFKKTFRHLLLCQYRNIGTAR

[5] = target: T5, Muscarinic acetylcholine receptor M5 (Homo sapiens, UniProt P08912); assay: Displacement of [3H]N-methylscopolamine from human muscarinic M5 receptor expressed in human HEK293T cell membranes by radioligand competition binding based analysis; parameters: species or system Cell membrane
T5 sequence (P08912 whole entry): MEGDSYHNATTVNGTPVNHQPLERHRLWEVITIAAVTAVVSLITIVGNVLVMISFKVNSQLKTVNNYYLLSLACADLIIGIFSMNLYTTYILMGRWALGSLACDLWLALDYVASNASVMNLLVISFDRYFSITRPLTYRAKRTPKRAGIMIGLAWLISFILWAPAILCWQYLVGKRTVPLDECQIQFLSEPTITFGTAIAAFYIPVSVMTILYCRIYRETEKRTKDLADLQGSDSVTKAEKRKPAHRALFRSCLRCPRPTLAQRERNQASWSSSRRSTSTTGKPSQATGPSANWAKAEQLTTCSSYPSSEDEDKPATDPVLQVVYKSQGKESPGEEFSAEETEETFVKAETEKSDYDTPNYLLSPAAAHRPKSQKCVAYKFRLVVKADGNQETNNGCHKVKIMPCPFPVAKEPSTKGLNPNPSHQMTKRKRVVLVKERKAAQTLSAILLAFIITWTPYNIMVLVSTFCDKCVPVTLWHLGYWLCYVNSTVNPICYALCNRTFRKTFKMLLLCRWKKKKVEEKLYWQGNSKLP

Homo sapiens [6] = organism: Homo sapiens; assay: Selectivity ratio, Ki for displacement of [3H]N-methylscopolamine from human muscarinic M4 receptor expressed in human HEK293T cell membranes to Ki for displacement of [3H]N-methylscopolamine from human muscarinic M3 receptor expressed in human HEK293T cell membranes
Homo sapiens [7] = organism: Homo sapiens; assay: Selectivity ratio, Ki for displacement of [3H]N-methylscopolamine from human muscarinic M5 receptor expressed in human HEK293T cell membranes to Ki for displacement of [3H]N-methylscopolamine from human muscarinic M3 receptor expressed in human HEK293T cell membranes
[8] = target: T3, Muscarinic acetylcholine receptor M3; assay: Binding affinity to human muscarinic M3 receptor expressed in human HEK293T cells assessed as inhibition of carbachol-induced G-protein signaling by measuring inositol accumulation preincubated for 30 mins followed by carbachol stimulation and measured after 90 mins by HTRF assay; assay type: cell-based
Target sequence in this assay (P20309 whole entry): as the sequence (P20309 whole entry) above

[9] = target: T3, Muscarinic acetylcholine receptor M3; assay: Binding affinity to human muscarinic M3 receptor expressed in human HEK293T cells co-expressing beta-arrestin2 assessed as inhibition of carbachol-induced beta-arrestin recruitment preincubated for 30 mins followed by carbachol stimulation and measured after 90 mins by PathHunter assay; assay type: cell-based
Target sequence in this assay (P20309 whole entry): as the sequence (P20309 whole entry) above

[10] = target: T3, Muscarinic acetylcholine receptor M3; assay: Binding affinity to saturated human muscarinic M3 expressed in CHO cells assessed as dissociation constant incubated for 2 hrs by flow cytometry; assay type: cell-based
Target sequence in this assay (P20309 whole entry): as the sequence (P20309 whole entry) above

[11] = target: T3, Muscarinic acetylcholine receptor M3; assay: Binding affinity to saturated human muscarinic M3 expressed in CHO cells assessed as dissociation constant incubated for 2 hrs in presence of atropine by flow cytometry; assay type: cell-based
Target sequence in this assay (P20309 whole entry): as the sequence (P20309 whole entry) above

[12] = target: T1, Muscarinic acetylcholine receptor M1; assay: Binding affinity to saturated human muscarinic M1 expressed in CHO cells assessed as dissociation constant incubated for 2 hrs in presence of atropine by flow cytometry; assay type: cell-based
[13] = target: T1, Muscarinic acetylcholine receptor M1; assay: Binding affinity to saturated human muscarinic M1 expressed in CHO cells assessed as dissociation constant incubated for 2 hrs by flow cytometry; assay type: cell-based
[14] = target: T3, Muscarinic acetylcholine receptor M3; assay: Binding affinity to human muscarinic M3 expressed in CHO cells assessed as association rate constant incubated for 1 to 75 mins in presence of atropine by flow cytometry; assay type: cell-based; conditions: time 1-75 min
Target sequence in this assay (P20309 whole entry, looked up): as the sequence (P20309 whole entry) above

[15] = target: T3, Muscarinic acetylcholine receptor M3; assay: Binding affinity to human muscarinic M3 expressed in CHO cells assessed as dissociation rate constant preincubated for 55 mins in dark followed by atropine addition and measured after 1 to 152 mins by flow cytometry; assay type: cell-based; conditions: time 56-207 min
Target sequence in this assay (P20309 whole entry, looked up): as the sequence (P20309 whole entry) above

CHO-K1 = assay: Cytotoxicity against Chinese hamster CHO-K1 cells assessed as reduction in cell viability upto 1 uM by crystal violet staining based multiplate reader analysis; assay type: toxicity, Cricetulus griseus; conditions: cho-k1, 1 µM
[16] = target: T3, Muscarinic acetylcholine receptor M3; assay: Displacement of atropine from human muscarinic M3 receptor expressed in CHO cells incubated for 2 hrs by flow cytometric competition binding assay; assay type: cell-based; conditions: for pKi: read-out: Ki; for Ki: read-out: pKi (converted)
Target sequence in this assay (P20309 whole entry): as the sequence (P20309 whole entry) above

[17] = target: T3, Muscarinic acetylcholine receptor M3; assay: Displacement of tiotropium bromide from human muscarinic M3 receptor expressed in CHO cells incubated for 4 hrs by flow cytometric competition binding assay; assay type: cell-based; conditions: for pKi: read-out: Ki
[18] = target: T3, Muscarinic acetylcholine receptor M3; assay: Binding affinity to human muscarinic M3 receptor expressed in CHO cells assessed as binding to cell membrane at 100 nM measured for 60 mins by Hoechst H33342 staining based confocal microscopy; assay type: cell membranes
Target sequence in this assay (P20309 whole entry, looked up): as the sequence (P20309 whole entry) above

[19] = target: T3, Muscarinic acetylcholine receptor M3; assay: Binding affinity to human muscarinic M3 receptor expressed in CHO cells assessed as binding to cell membrane at 60 nM measured for 60 mins by Hoechst H33342 staining based confocal microscopy; assay type: cell membranes
Target sequence in this assay (P20309 whole entry, looked up): as the sequence (P20309 whole entry) above

[20] = target: T3, Muscarinic acetylcholine receptor M3; assay: Binding affinity to human muscarinic M3 receptor expressed in CHO cells assessed as binding to cell membrane at 100 nM measured for 60 mins in presence of atropine by Hoechst H33342 staining based confocal microscopy; assay type: cell membranes
Target sequence in this assay (P20309 whole entry, looked up): as the sequence (P20309 whole entry) above

[21] = target: T3, Muscarinic acetylcholine receptor M3; assay: Binding affinity to human muscarinic M3 receptor expressed in CHO cells assessed as binding to cell membrane at 60 nM measured for 60 mins in presence of atropine by Hoechst H33342 staining based confocal microscopy; assay type: cell membranes
Target sequence in this assay (P20309 whole entry, looked up): as the sequence (P20309 whole entry) above

[22] = target: T3, Muscarinic acetylcholine receptor M3; assay: Binding affinity to human muscarinic M3 expressed in CHO cells assessed as association rate constant incubated for 0.5 to 36 mins in presence of atropine by flow cytometry; assay type: cell-based; conditions: time lower 0.5 min, time upper […]
[23] = target: T3, Muscarinic acetylcholine receptor M3; assay: Binding affinity to human muscarinic M3 expressed in CHO cells assessed as dissociation rate constant preincubated for 20 mins in dark followed by atropine addition and measured after 1 to 130 mins by flow cytometry; assay type: cell-based; conditions: time lower […], time upper 150.0 min

Row | pKi [1] | pKi [2] | pKi [3] | pKi [4] | pKi [5] | pIC50 [8] | pIC50 [9] | pKd [10] | pKd [11] | pKd [12] | pKd [13] | pKi [16] | Ki [16] [nM] | pKi [17] | Activity [18] | Activity [19] | Activity [20] | Structure (SMILES) | Selectivity ratio (Homo sapiens [6]) | Selectivity ratio (Homo sapiens [7]) | Activity (CHO-K1) | other results
1 | 9.14 | 8.02 | 7.85 | 9.06 | 8.26 | 6.52 | 6.35 | 7.27 | 7.30 | 8.19 | 8.22 | 8.62 | 2.14 | 9.85 | Active | Active | inactive | CC1(C)C(/C=C/C=C/C=C2/N(CCCCS(=O)(=O)O)c3ccccc3C2(C)C)=[N+](CCCCCC(=O)NCCCCCCCCN2CCC(OC(=O)Nc3ccc(F)cc3-c3ccc(F)c(Cl)c3)CC2)c2ccc(S(=O)(=O)[O-])cc21 | 0.06 | 0.39 | Non-Toxic | ka [14]: 0.09 min⁻¹; Kdiss [15]: 0.000433 s⁻¹; Activity [21]: inactive
2 | 8.82 | 7.96 | 8.92 | 8.85 | 8.13 | 6.89 | 6.37 | 7.64 | 7.62 | 8.08 | 8.14 | 8.64 | 2.19 | 9.82 | Active | Active | inactive | CN(C)c1ccc2c(-c3ccc(-c4cn(CCCCCn5cc(CCCCCCN6CCC(COC(=O)Nc7ccc(F)cc7-c7ccc(F)c(Cl)c7)CC6)nn5)nn4)cc3C(=O)[O-])c3ccc(=[N+](C)C)cc-3oc2c1 | 1.2 | 6.2 | Non-Toxic | ka [22]: 0.37 min⁻¹; Kdiss [23]: 0.0004 s⁻¹; Ki ([17]; read-out: pKi (converted)): 0.132 nM; Activity [21]: inactive

Source: ChEMBL document CHEMBL5236624, “Synthesis, Characterization, and Application of Muscarinergic M3 Receptor Ligands Linked to Fluorescent Dyes” (J Med Chem, 2022)
